# Results published in ChEMBL document CHEMBL5649167, “The SUV4-20 inhibitor A-196 verifies a role for epigenetics in genomic integrity” (Nat Chem Biol, 2017).
# Active and inactive are the calls of the source. No cut-off for these calls is given here.
# Key:
# [1] = target: Histamine H3 receptor (Homo sapiens) (UniProt Q9Y5N1); assay: Inhibition of human Histamine H3 receptor expressed in human Flp-In-293 cells at 10 uM relative to control; format: cell-based
# [2] = target: High affinity nerve growth factor receptor (Homo sapiens) (UniProt P04629); assay: Inhibition of human TRKA at 10 uM relative to control
# [3] = target: Muscarinic acetylcholine receptor M3 (Homo sapiens) (UniProt P20309); assay: Inhibition of human Muscarinic acetylcholine receptor M3 expressed in stable Cricetulus griseus CHO cells at 10 uM relative to control; format: cell-based
# B-cell [4] = assay: Induction of DNA repair in mouse B cells assessed as inhibition in H4K20me3 level at 1 to 10 uM incubated for 96 hrs by western blot analysis; format: functional, cell-based; settings: dose 1-10 µM
# [5] = target: Histamine H1 receptor (Homo sapiens) (UniProt P35367); assay: Inhibition of human histamine H1 receptor expressed in stable HEK cells at 10 uM relative to control; format: cell-based
# B-cell [6] = assay: Induction of DNA repair in mouse B cells assessed as inhibition in H4K20me2 level at 1 to 10 uM incubated for 96 hrs by western blot analysis; format: functional, cell-based; settings: dose 1-10 µM
# [7] = target: Type-1 angiotensin II receptor (Homo sapiens) (UniProt P30556); assay: Inhibition of human AT1 at 10 uM relative to control
# [8] = target: Histamine H2 receptor (Homo sapiens) (UniProt P25021); assay: Inhibition of human Histamine H2 receptor expressed in stable HEK cells at 10 uM relative to control; format: cell-based
# Homo sapiens [9] = species on record: Homo sapiens; assay: Inhibition of human GABA-gated Cl- channel at 10 uM relative to control
# [10] = target: Tyrosine-protein kinase ABL1 (Homo sapiens) (UniProt P00519); assay: Inhibition of human Abl at 10 uM relative to control
# [11] = target: T1, Muscarinic acetylcholine receptor M1 (Homo sapiens) (UniProt P11229); assay: Inhibition of human Muscarinic acetylcholine receptor M1 at 10 uM relative to control
# T1 sequence (whole entry): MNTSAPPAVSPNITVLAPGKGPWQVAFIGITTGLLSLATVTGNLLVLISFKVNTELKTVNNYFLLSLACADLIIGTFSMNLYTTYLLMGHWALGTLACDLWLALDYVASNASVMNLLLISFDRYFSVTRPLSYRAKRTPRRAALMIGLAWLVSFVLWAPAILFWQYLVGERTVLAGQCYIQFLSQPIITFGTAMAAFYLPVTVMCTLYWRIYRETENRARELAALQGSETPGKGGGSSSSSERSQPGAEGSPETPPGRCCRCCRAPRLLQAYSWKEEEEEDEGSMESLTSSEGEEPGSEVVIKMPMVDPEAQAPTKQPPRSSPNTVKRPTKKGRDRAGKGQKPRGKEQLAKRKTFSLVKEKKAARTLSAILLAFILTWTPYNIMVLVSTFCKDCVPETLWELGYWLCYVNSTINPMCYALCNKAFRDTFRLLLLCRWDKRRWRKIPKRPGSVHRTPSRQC
# [12] = target: 5-hydroxytryptamine receptor 1D (Homo sapiens) (UniProt P28221); assay: Inhibition of human 5-HT1D expressed in HEK293T cells at 10 uM relative to control; format: cell-based
# [13] = target: Beta-1 adrenergic receptor (Homo sapiens) (UniProt P08588); assay: Inhibition of human Beta-1 adrenoceptor at 10 uM relative to control
# [14] = target: Beta-3 adrenergic receptor (Homo sapiens) (UniProt P13945); assay: Inhibition of human Beta-3 adrenergic receptor expressed in human Flp-In-293 cells at 10 uM relative to control; format: cell-based
# Rattus norvegicus [15] = species on record: Rattus norvegicus; assay: Inhibition of Rat GABAA at 10 uM in the presence of PBR relative to control
# [16] = target: 5-hydroxytryptamine receptor 1B (Homo sapiens) (UniProt P28222); assay: Inhibition of human 5-HT1B expressed in stable HEK cells at 10 uM relative to control; format: cell-based
# [17] = target: D(1A) dopamine receptor (Homo sapiens) (UniProt P21728); assay: Inhibition of human D(1A) dopamine receptor at 10 uM relative to control
# [18] = target: Protein arginine N-methyltransferase 1 (Homo sapiens) (UniProt Q99873); assay: Inhibition of PRMT1 (unknown origin) using Biotin-tagged H4K20me1 and [3H-SAM] as substrate at 1 to 10 uM incubated for 2 hrs by scintillation proximity assay; settings: dose 1-10 µM
# [19] = target: Mu-type opioid receptor (Homo sapiens) (UniProt P35372); assay: Inhibition of human Mu-type opioid receptor at 10 uM relative to control
# [20] = target: Kappa-type opioid receptor (Homo sapiens) (UniProt P41145); assay: Inhibition of human Kappa-type opioid receptor at 10 uM relative to control
# Rattus norvegicus [21] = species on record: Rattus norvegicus; assay: Inhibition of Rat GABAA at 10 uM in the presence of 3H and BZP relative to control
# [22] = target: Cholecystokinin receptor type A (Homo sapiens) (UniProt P32238); assay: Inhibition of human CCK1 at 10 uM relative to control
# [23] = target: 5-hydroxytryptamine receptor 7 (Homo sapiens) (UniProt P34969); assay: Inhibition of human 5-HT7 at 10 uM relative to control
# Embryonic stem cell = assay: Antiproliferative activity against mouse Embryonic stem cell assessed as reduction in H4K20me3 at 10 uM incubated for 3 days by immunofluorescence analysis; format: functional, cell-based; settings: time 3.0 day
# [24] = target: Delta-type opioid receptor (Homo sapiens) (UniProt P41143); assay: Inhibition of human Delta-type opioid receptor at 10 uM relative to control
# Homo sapiens [25] = species on record: Homo sapiens; assay: Inhibition of human 5-HT3 at 10 uM relative to control
# [26] = target: 5-hydroxytryptamine receptor 1B (Homo sapiens) (UniProt P28222); assay: Inhibition of human 5-hydroxytryptamine receptor 1B at 10 uM relative to control
# [27] = target: Adenosine receptor A2a (Homo sapiens) (UniProt P29274); assay: Inhibition of human Adenosine receptor A2a at 10 uM relative to control
# [28] = target: 5-hydroxytryptamine receptor 2B (Homo sapiens) (UniProt P41595); assay: Inhibition of human 5-hydroxytryptamine receptor 2B at 10 uM relative to control
# [29] = target: Neuromedin-K receptor (Homo sapiens) (UniProt P29371); assay: Inhibition of human Neuromedin-K receptor at 10 uM relative to control
# [30] = target: Muscarinic acetylcholine receptor M3 (Homo sapiens) (UniProt P20309); assay: Inhibition of human Muscarinic 3 at 10 uM relative to control
# [31] = target: Alpha-2B adrenergic receptor (Homo sapiens) (UniProt P18089); assay: Inhibition of human Alpha-2B adrenergic receptor expressed in HEK293T cells at 10 uM relative to control; format: cell-based
# [32] = target: D(3) dopamine receptor (Homo sapiens) (UniProt P35462); assay: Inhibition of human D(3) dopamine receptor expressed in HEK293T cells at 10 uM relative to control; format: cell-based
# [33] = target: Neuropeptide Y receptor type 2 (Homo sapiens) (UniProt P49146); assay: Inhibition of human NPY-Y2 receptor at 10 uM relative to control
# [34] = target: 5-hydroxytryptamine receptor 1E (Homo sapiens) (UniProt P28566); assay: Inhibition of human 5-ht1e in stable HEK cells at 10 uM relative to control; format: cell-based
# Homo sapiens [35] = species on record: Homo sapiens; assay: Inhibition of human CB1 at 10 uM relative to control
# 5-hydroxytryptamine receptor 1B (Homo sapiens), sequence (P28222 whole entry): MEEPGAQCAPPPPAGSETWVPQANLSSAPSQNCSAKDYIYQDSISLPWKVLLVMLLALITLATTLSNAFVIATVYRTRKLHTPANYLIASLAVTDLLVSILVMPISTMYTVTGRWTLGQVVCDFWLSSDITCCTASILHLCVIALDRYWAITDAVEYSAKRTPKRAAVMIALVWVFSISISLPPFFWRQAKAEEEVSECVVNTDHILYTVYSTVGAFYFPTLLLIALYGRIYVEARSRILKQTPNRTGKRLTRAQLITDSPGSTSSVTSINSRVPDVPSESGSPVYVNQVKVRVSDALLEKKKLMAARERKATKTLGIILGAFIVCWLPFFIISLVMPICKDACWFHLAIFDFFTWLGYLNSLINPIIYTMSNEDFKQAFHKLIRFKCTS
# Muscarinic acetylcholine receptor M3 (Homo sapiens), sequence (P20309 whole entry, looked up): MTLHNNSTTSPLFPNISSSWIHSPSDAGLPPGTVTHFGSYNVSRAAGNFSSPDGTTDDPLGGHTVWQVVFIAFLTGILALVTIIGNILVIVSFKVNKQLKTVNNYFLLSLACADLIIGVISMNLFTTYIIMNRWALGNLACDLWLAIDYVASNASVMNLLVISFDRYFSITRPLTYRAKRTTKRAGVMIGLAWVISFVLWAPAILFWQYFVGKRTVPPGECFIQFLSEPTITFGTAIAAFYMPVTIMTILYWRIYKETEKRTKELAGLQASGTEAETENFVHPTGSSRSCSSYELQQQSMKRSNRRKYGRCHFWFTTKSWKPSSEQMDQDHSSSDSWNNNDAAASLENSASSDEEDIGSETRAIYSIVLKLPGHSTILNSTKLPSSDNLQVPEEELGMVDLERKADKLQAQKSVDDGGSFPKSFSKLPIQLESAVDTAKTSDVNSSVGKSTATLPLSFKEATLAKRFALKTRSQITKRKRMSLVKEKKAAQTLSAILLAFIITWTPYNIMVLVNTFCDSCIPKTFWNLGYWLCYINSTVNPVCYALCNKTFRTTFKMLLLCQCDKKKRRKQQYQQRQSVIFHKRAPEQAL
# Alpha-2B adrenergic receptor (Homo sapiens), sequence (P18089 whole entry): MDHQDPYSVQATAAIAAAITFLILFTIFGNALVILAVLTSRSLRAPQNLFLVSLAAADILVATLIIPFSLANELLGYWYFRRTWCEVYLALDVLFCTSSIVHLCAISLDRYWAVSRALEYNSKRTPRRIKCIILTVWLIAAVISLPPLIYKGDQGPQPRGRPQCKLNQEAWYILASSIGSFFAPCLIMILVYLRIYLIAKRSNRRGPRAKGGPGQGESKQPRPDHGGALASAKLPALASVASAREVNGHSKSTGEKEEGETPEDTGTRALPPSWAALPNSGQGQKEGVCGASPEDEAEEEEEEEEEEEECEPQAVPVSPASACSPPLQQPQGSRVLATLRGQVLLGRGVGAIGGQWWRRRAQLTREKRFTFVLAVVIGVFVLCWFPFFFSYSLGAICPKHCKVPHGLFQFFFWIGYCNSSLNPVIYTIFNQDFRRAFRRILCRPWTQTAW
# Histamine H2 receptor (Homo sapiens), sequence (P25021 whole entry): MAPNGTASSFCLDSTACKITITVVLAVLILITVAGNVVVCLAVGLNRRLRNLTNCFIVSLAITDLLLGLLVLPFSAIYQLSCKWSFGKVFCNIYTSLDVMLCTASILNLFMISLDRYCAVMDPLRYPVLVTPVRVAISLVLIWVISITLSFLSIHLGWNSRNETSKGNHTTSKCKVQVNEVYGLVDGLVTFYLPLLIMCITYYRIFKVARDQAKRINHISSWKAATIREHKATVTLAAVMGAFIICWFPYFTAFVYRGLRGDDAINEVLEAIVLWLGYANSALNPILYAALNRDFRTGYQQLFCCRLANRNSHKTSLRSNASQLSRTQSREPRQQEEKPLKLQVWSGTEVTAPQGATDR
# 5-hydroxytryptamine receptor 2B (Homo sapiens), sequence (P41595 whole entry): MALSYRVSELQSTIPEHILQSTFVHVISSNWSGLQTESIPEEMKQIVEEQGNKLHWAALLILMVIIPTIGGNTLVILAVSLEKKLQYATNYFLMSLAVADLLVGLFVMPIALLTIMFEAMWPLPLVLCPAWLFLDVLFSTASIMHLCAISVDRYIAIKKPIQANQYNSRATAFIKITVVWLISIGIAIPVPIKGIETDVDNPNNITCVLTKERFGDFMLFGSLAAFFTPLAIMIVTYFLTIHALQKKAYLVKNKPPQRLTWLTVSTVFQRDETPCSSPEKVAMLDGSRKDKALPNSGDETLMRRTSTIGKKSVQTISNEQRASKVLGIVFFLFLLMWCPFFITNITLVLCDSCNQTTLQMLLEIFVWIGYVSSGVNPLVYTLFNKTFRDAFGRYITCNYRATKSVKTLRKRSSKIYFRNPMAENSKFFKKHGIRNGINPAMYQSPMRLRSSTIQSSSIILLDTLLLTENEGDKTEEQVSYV
# D(1A) dopamine receptor (Homo sapiens), sequence (P21728 whole entry): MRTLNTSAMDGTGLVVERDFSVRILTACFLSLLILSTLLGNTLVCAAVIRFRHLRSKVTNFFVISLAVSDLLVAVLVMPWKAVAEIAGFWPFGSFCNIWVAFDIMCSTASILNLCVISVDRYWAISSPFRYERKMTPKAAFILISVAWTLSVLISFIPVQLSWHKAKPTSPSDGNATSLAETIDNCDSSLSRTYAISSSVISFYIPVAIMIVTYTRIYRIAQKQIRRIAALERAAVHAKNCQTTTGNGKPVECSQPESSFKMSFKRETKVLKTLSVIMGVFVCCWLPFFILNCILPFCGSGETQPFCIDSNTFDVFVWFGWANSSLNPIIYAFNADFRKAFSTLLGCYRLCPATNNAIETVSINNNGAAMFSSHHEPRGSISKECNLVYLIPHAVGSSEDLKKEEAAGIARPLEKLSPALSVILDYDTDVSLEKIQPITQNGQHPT
# Beta-1 adrenergic receptor (Homo sapiens), sequence (P08588 whole entry, looked up): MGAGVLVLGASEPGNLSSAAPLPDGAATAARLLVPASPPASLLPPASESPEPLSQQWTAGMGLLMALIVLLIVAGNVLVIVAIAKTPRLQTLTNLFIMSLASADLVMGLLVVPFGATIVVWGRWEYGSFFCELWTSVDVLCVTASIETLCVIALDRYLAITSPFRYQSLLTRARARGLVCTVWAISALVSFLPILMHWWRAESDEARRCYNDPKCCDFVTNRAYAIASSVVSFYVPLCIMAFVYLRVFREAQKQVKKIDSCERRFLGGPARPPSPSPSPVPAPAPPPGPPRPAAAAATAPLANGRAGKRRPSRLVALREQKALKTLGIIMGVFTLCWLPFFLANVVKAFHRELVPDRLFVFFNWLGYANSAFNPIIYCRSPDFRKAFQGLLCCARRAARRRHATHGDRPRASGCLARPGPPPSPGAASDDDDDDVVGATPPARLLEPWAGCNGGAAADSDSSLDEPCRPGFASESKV
# 5-hydroxytryptamine receptor 7 (Homo sapiens), sequence (P34969 whole entry): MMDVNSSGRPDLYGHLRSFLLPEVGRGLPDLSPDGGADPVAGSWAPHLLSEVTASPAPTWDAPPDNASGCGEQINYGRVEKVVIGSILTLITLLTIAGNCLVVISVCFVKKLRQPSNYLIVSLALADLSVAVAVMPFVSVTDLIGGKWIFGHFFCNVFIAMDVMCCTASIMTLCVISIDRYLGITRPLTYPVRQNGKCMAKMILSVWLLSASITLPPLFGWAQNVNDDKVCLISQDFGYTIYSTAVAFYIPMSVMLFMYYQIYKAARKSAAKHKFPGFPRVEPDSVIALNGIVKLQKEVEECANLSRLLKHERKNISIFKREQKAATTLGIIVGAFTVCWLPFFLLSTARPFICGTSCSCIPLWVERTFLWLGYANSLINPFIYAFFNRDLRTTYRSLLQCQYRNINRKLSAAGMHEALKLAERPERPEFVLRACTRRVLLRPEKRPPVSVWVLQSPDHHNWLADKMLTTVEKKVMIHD
# Kappa-type opioid receptor (Homo sapiens), sequence (P41145 whole entry): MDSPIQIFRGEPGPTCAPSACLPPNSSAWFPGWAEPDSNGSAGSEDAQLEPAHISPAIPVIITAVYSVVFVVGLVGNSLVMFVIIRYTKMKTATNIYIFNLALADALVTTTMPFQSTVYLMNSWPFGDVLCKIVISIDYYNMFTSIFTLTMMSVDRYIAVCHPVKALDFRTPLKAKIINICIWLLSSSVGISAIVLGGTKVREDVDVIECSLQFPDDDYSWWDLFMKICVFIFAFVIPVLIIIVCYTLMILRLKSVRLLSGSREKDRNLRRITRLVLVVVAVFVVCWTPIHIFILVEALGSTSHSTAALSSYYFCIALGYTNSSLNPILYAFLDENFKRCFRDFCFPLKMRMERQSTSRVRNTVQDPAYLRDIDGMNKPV
# Mu-type opioid receptor (Homo sapiens), sequence (P35372 whole entry): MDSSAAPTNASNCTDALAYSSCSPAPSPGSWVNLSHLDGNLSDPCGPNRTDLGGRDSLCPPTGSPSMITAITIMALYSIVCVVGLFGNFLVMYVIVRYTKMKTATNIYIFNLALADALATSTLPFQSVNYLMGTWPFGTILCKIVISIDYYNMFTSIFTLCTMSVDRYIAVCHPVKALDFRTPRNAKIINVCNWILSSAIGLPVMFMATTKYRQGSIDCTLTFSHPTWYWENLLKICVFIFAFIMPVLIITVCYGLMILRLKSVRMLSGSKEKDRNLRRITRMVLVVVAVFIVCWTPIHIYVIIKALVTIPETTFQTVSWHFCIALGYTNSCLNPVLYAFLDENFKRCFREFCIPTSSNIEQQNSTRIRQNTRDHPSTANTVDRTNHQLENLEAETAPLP
# Neuropeptide Y receptor type 2 (Homo sapiens), sequence (P49146 whole entry): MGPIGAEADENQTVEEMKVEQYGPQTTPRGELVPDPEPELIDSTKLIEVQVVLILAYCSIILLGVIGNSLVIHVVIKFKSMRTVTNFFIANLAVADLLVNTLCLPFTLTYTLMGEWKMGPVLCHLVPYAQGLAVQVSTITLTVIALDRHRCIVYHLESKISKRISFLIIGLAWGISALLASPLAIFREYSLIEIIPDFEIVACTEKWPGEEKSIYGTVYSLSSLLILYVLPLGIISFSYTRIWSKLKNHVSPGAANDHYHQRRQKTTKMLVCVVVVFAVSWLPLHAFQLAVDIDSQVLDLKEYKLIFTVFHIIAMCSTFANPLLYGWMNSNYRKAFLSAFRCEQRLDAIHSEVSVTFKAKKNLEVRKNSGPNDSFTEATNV
inhibition [1] [%],inhibition [3] [%],inhibition [5] [%],inhibition [7] [%],inhibition [8] [%],inhibition (Homo sapiens [9]) [%],inhibition [11] [%],inhibition [12] [%],inhibition [13] [%],inhibition [14] [%],inhibition (Rattus norvegicus [15]) [%],inhibition [16] [%],inhibition [17] [%],inhibition [19] [%],inhibition [20] [%],inhibition (Rattus norvegicus [21]) [%],inhibition [22] [%],inhibition [23] [%],SMILES,inhibition (B-cell [4]),inhibition (B-cell [6]),other results
6,-8,17,10,-1,90,21,-8,3,-9,1,4,15,31,62,5,-2,6,Clc1cc2c(NC3CCCC3)nnc(-c3ccncc3)c2cc1Cl,Active,Active,inhibition [2]: 1%; inhibition [10]: 2%; inhibition [18]: inactive; Activity (Embryonic stem cell): Active; inhibition [24]: 51%; inhibition (Homo sapiens [25]): 4%; inhibition [26]: 20%; inhibition [27]: 98%; inhibition [28]: 27%; inhibition [29]: 26%; inhibition [30]: 11%; inhibition [31]: 14%; inhibition [32]: 1%; inhibition [33]: -8%
-4,-3,2,-7,-7,17,10,1,11,-8,65,5,-3,23,45,29,7,-3,O=C(c1nnc(NC2CCCC2)c2cc(Cl)c(Cl)cc12)N1CCC(O)CC1,inactive,inactive,inhibition [34]: 10%; Activity (Embryonic stem cell): inactive; inhibition [24]: 6%; inhibition (Homo sapiens [35]): 21%; inhibition (Homo sapiens [25]): 6%; inhibition [27]: 22%; inhibition [28]: 8%; inhibition [29]: 11%; inhibition [30]: 18%; inhibition [31]: 7%; inhibition [32]: 0%; inhibition [33]: -5%
